From patent publication US20020169101A1, “Treatment of sexual dysfunction” (priority 1999, published 2002)

What was measured:
[1] = test system: penile intracavernosal pressure; experiment: Pelvic nerve-stimulated penile intracavernosal pressure in the anaesthetised rabbit model of erection; assay type: in vivo; conditions: Compound 3 (10 mg/kg sc) concomitant with a selective PDE5 inhibitor (1 mg/kg iv), vs Compound 3 alone, anaesthetised rabbit (FIG. 26)
Experimental: Male New Zealand rabbits (˜2.5kg) were pre-medicated with a combination of Medetomidine (Domitor®) 0.5 ml/kg i.m., and Ketamine (Vetalar®)) 0.25 ml/kg i.m. whilst maintaining oxygen intake via a face mask. The rabbits were tracheotomised using a PorteXTM uncuffed endotracheal tube 3 ID., connected to ventilator and maintained at a ventilation rate of 30-40 breaths per minute, with an approximate tidal volume of 18-20 ml, and a maximum airway pressure of 10 cm H2O. Anaesthesia was then switched to Isoflurane and ventilation continued with O2 at 21/min. The right marginal ear vein was cannulated using a 23G or 24G catheter, and Lactated Ringer solution perfused at 0.5 ml/min. The rabbit was maintained at 3% Isoflurane during invasive surgery, dropping to 2% for maintenance anaesthesia. The left jugular vein was exposed, isolated and then cannulated with a PVC catheter (17G) for the infusion of drugs and compounds.
The left groin area of the rabbit was shaved and a vertical incision was made approximately 5 cm in length along the thigh. […] Systolic and diastolic pressures were measured, and the mean arterial pressure calculated using the formula (diastolic x2+systolic)÷3. Heart rate was measured via the pulse oxymeter and Po-ne-mah data acquisition software system (Ponemah Physiology Platform, Gould Instrument Systems Inc). […]

human NMB receptor (BB1) = target: T1, human NMB receptor (BB1) (Homo sapiens, UniProt P28336); experiment: BB1 binding assay ([125I][Tyr4]bombesin displacement, CHO-K1 membranes); conditions: read-out: hBB1 Ki
T1 construct: expressed in transfected cells; membranes prepared from the cells
In short: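 Membranes from CHO-K1 cells stably expressing human NMB (BB1) or GRP (BB2) receptors, in 50 mM Tris-HCl pH 7.4 with BSA and protease inhibitors, incubated with [125I][Tyr4]bombesin (<0.1 nM) for 60 min (BB1) or 90 min (BB2). Nonspecific binding defined with 1 μM bombesin; filtration and gamma counting; IC50 converted to Ki by Cheng-Prusoff.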

[2] = Plasma sexual hormone levels in ovariectomised female rats (radioimmunoassay); assay type: in vivo, rat
Experimental: Ovariectomised adult female Sprague Dawley rats (180-200 g) were housed in groups of 6 in a reversed lighting system of 12 h light:dark (lights off 7.00-19.00 h). They were used for the experiments at least two weeks after ovariectomy. Forty eight hours before tests, the animals were primed with oestradiol benzoate (5 μg/0.1 ml in corn oil, s.c.). Progesterone (0.5 mg/0.1 ml, in corn oil, s.c.) was administered 4 h before blood collection, as a positive control. Compound (1) (3-10 mg/kg, i.p.) was administered in 50% 2-hydroxypropyl-β-cyclodextrin, 1 h prior to blood collection. Blood was collected from the trunk, after decapitation. It was immediately centrifuged (3500 r.p.m., 4° C., 5 min) and the plasmas frozen until assayed for hormonal content, using commercially available radioimmunoassay kits (^125I-labelled hormones) for oestradiol, progesterone, LH, FSH and prolactin.

T1 sequence (P28336 whole entry): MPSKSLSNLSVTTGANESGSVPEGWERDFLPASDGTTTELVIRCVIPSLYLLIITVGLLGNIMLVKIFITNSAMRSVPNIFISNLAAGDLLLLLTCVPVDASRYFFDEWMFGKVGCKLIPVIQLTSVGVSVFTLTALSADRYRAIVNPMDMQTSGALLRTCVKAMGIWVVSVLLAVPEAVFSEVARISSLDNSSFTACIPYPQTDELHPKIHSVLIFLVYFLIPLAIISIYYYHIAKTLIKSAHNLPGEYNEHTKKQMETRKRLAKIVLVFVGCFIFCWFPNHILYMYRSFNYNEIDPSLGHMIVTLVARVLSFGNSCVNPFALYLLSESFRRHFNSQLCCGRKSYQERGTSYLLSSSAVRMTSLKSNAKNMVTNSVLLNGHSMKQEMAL

SMILES | pelvic nerve-stimulated intracavernosal pressure (ICP) [1] | pelvic nerve-stimulated intracavernosal pressure (ICP) ([1]; listed as compound 3) | Ki (human NMB receptor (BB1)) [nM] | plasma levels of progesterone ([2]; Compound (1) 3-10 mg/kg i.p. 1 h, progesterone 0.5 mg s.c. 4 h before blood collection, vs vehicle (FIG. 6)) | plasma levels of LH ([2]; Compound (1) 3-10 mg/kg i.p. 1 h, progesterone 0.5 mg s.c. 4 h before blood collection, vs vehicle (FIG. 9)) | plasma levels of oestradiol ([2]; Compound (1) 3-10 mg/kg i.p. 1 h before blood collection (FIG. 7)) | plasma levels of prolactin ([2]; Compound (1) 3-10 mg/kg i.p. 1 h before blood collection (FIG. 8)) | plasma levels of FSH ([2]; Compound (1) 3-10 mg/kg i.p. 1 h before blood collection (FIG. 10))
C[C@@](Cc1c[nH]c2ccccc12)(NC(=O)Nc1ccc([N+](=O)[O-])cc1)C(=O)NCC1(c2ccc(N)cc2)CCCCC1 [Compound 3, (2S)-N-{[1-(4-aminophenyl)cyclohexyl]methyl}-3-(1H-indol-3-yl)-2-methyl-2-{[(4-nitroanilino)-carbonyl]amino}propanamide] | marked enhancement of the ICP | marked enhancement of intracavernosal pressure | 0.25 | – | – | – | – | –
COc1ccc(C2(CNC(=O)[C@](C)(Cc3c[nH]c4ccccc34)NC(=O)Nc3ccc([N+](=O)[O-])cc3)CCCCC2)nc1 [Compound (1), (S) 3-(1H-Indol-3-yl)-N-[1-(5-methoxy-pyridin-2-yl)-cyclohexyl-methyl]-2-methyl-2-[3-(4-nitro-phenyl)-ureido]-propionamide] | – | – | – | no effect | no effect | no effect | no effect | no effect
